From patent US20060222675A1, “Personal care compositions with color changing indicator” (priority 2005, published 2006)

System: bacteria, virus and yeast
Assay: germicidal efficacy of surfactant-detergent compounds
Conditions: surfactants tested separately and in combination
Source text: Disinfecting surfactant-detergent compounds are also used in the liquid composition. Surfactants are effective germicides and attack the membranes of the organisms. Also, the surfactants are surface active reducing surface tension. […] It is thought that the surfactant has two characteristics which contribute to this invention. Those being germicidal activity including effectiveness over a wide range of organisms including bacteria, virus and yeast and providing a reduction of the surface tension of the composition to achieve effective spread and distribution if the germicide on the surface to be disinfected. Two different types of surfactants were tested separately and in combination for efficacy. […] There are other compounds which have the properties of germicide-surfactants, and this invention is not limited to those compounds shown in the examples.

Molecule	efficacy as germicide-surfactant
octyl phenoxy polyethoxyethanol	effective germicide-surfactants
CCCCCCCCCCCCOS(=O)(=O)[O-].[Na+] [sodium dodecyl sulfate]	effective germicide-surfactants
